The results in this text go back to patent US12180226B2, “Spirotricycle RIPK1 inhibitors and methods of uses thereof” (Merck Sharp & Dohme LLC, priority 2021, dated 2024).

A value given as a limit tells only on which side of the number the result lay.

In the test the target is RIPK1 (recombinant GST-RIPK1 kinase domain, residues 1-327) (Homo sapiens (Human), UniProt Q13546). In words: RIPK1-ADP-Glo Enzymatic Assay. The class given is biochemical. Particulars: ADP-Glo; 25 nM GST-RIPK1, 300 μM ATP; assay lower limit ~25 nM; read-out: RIPK1 V0 Ec50. Put shortly: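 Luminescent ADP-Glo readout of ATP-to-ADP conversion. Conditions: 25 nM enzyme, 300 μM ATP, 3 μM dephospho-MBP, pH 7.3 HEPES buffer with 20 mM MgCl2; 30 min compound pre-incubation, 150 min reaction. EC50 via four-parameter sigmoidal regression; assay floor ~25 nM.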
Chain of RIPK1 (recombinant GST-RIPK1 kinase domain, residues 1-327) (Q13546 1-327): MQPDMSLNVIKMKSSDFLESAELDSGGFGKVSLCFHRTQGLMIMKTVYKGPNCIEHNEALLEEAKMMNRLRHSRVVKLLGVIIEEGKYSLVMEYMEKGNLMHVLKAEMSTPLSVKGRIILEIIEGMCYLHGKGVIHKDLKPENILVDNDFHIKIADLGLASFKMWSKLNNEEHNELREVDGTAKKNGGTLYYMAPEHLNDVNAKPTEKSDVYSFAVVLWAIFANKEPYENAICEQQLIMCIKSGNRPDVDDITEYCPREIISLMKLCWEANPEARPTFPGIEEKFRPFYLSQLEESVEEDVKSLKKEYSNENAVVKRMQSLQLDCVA
For orientation: ADP-Glo turns the ADP formed in a reaction into a luminescent signal.
The EC50 is the concentration needed to bring the measured effect to its halfway point. With `O=C(c1onc2ccccc12)N1CCC2(CC1)O[C@@H]1CC[C@@H](c3cc(F)cc(F)c3)N1C2=O` [Example 6.50, (5′S,7a′R)-1-(2,1-benzoxazole-3-carbonyl)-5′-(3,5-difluorophenyl)tetra-hydro-3′H-spiro [piperidine-4,2′-pyrrolo[2,1-b][1,3]oxazol]-3′-one], the EC50 was less than 25 nM.
As for `O=C(c1cc(F)ccc1F)N1CC2(C1)O[C@@H]1CC[C@@H](c3cc(F)cc(F)c3)N1C2=O` [Example 1.20, (5′S,7a′R)-1-(2,5-difluorobenzoyl)-5′-(3,5-difluorophenyl)tetrahydro-3′H-spiro[azetidine-3,2′-pyrrolo[2,1-b]oxazol]-3′-one], the EC50 is 41.7 nM.
`O=C1N2[C@@H](CO[C@H]2c2cc(F)cc(F)c2)CC12CCN(c1ccnc3c(F)cnn13)CC2` (stereo in doubt) [Example 4.148, 3′-(3,5-difluorophenyl)-1-(3-fluoropyrazolo[1,5-a]pyrimidin-7-yl)dihydro-1′H,3′H,5′H-spiro[piperidine-4,6′-pyrrolo[1,2-c] [1,3]oxazol]-5′-one]: the EC50 is less than 25 nM.
For the molecule `N#Cc1ccc(F)c([C@@H]2CC[C@H]3OC4(CCN(c5ccnc6c(F)cnn56)CC4)C(=O)N32)c1` [Example 20.4, 4-fluoro-3-[(5′S,7a′R)-1-(3-fluoropyrazolo[1,5-a]pyrimidin-7-yl)-3′-oxotetrahydro-3′H-spiro[piperidine-4,2′-pyrrolo[2,1-b][1,3]oxazol]-5′-yl]benzonitrile], the EC50 is less than 25 nM.
Turning to `COC(=O)c1cnc(N2CCC3(CC2)O[C@@H]2CC[C@@H](c4ccccc4)N2C3=O)c(OC)c1` [Example 4.197, methyl 5-methoxy-6-[(5′S,7a′R)-3′-oxo-5′-phenyltetrahydro-1H,3′H-spiro[piperidine-4,2′-pyrrolo[2,1-b] [1,3]oxazol]-1-yl]pyridine-3-carboxylate], the EC50 came out at 25.1 nM.
With `O=C(c1ccccc1)N1CCC2(CC1)S[C@@H]1CC[C@@H](c3ccccc3)N1C2=O` [Example 1.23, (5′S,7a′R)-1-(benzenecarbonyl)-5′-phenyltetrahydro-3′H-spiro[piperidine-4,2′-pyrrolo[2,1-b] [1,3]thiazol]-3′-one] the figure was 26.1 nM; with `O=C(c1cnnc2ccccc12)N1CCC2(CC1)O[C@@H]1CC[C@@H](c3cc(F)cc(F)c3)N1C2=O` [Example 6.58, (5′S,7a′R)-1-(cinn-oline-4-carbonyl)-5′-(3,5-difluorophenyl) tetrahydro-3′H-spiro [piperidine-4,2′-pyrrolo[2,1-b][1,3]-oxazol]-3'-one], 263 nM; with `O=C(c1cccc(C2CC2)c1)N1CCC2(CC1)O[C@@H]1CC[C@@H](c3ccccc3)N1C2=O` [Example 6.156, (5′S,7a′R)-1-(3-cyclopropylbenzene-1-carbonyl)-5′-phen-yltetrahydro-3′H-spiro[piperidine-4,2′-pyrrolo[2,1-b][1,3]oxazol]-3′-one], less than 25 nM.
`COc1cc(N2CCC3(CC2)O[C@@H]2CC[C@@H](c4cc(F)cc(F)c4)N2C3=O)ncn1` [Example 4.11, (5′S,7a′R)-5′-(3,5-difluorophenyl)-1-(6-methoxypyrimidin-4-yl)tetrahydro-3′H-spiro[piperidine-4,2′-pyrrolo[2,1-b] [1,3]oxazol]-3′-one]: the EC50 is less than 25 nM.
For the molecule `COc1ccnc(N2CCC3(CC2)O[C@@H]2CC[C@@H](c4cc(F)cc(F)c4)N2C3=O)n1` [Example 4.10, (5′S,7a′R)-5′-(3,5-difluorophenyl)-1-(4-methoxypyrimidin-2-yl)tetrahydro-3′H-spiro[piperidine-4,2′-pyrrolo[2,1-b] [1,3]oxazol]-3′-one], the EC50 came to 35.5 nM.
`N#Cc1ccc(N2CCC3(CC2)O[C@@H]2CC[C@@H](c4ccccc4)N2C3=O)n2ncc(-c3ncco3)c12` [Example 4.181, 3-(1,3-oxazol-2-yl)-7-[(5′S,7a′R)-3′-oxo-5′-phenyltetrahydro-1H,3′H-spiro[piperidine-4,2′-pyrrolo[2,1-b] [1,3]oxazol]-1-yl]pyrazolo[1,5-a] pyridine-4-carbonitrile]: the EC50 turned out to be 110 nM.
